Like-named read-outs stand apart in the source and are kept apart here.
Columns and labels:
[1] = tested on: T47D; experiment: CellTiterGlo luminescent cell viability assay, T47D; conditions: Homo sapiens, 72 h
Protocol: (§1) A cell proliferation assay was performed using the CellTiterGlo (CTG, Promega Corp., Madison, WI, USA) luminescent cell viability assay kit. MDA-MB231 cells were seeded into 96-well plates at concentrations experimentally determined to ensure logarithmic growth during the duration of the experiment and to prevent adverse effects on cell growth by DMSO exposure. The plates were incubated 12 h before treatment. […] The final concentration of DMSO was 0.3% (v/v) in each well. The positive control used was staurosporine (1 μM) and a toxic quinolone generated inhouse, as kill-all controls, and the negative control used was cholesterol. […] The plates were incubated for 72 h and then quenched with CTG at 50 μL per well at RT. Plates were then incubated at RT for 20 min and centrifuged at 1000 rpm for 1 min. Luminescence was read on a CLARIOstar Plus plate reader (BMG LabTech, Ortenberg, Germany). The cell viability assay was also performed in the non-neoplastic cell line BJ, which was incubated with compounds, as mentioned in cell viability assay (CTG). The mean luminescence of each experimental treatment group was normalized as a percentage of the mean intensity of untreated controls. EC50 values were calculated from dose-response curve-fitting via non-linear regression using GraphPad Prism 9.0 (GraphPad Software, San Diego, CA, USA) (Figure S1).

[2] = tested on: MDA-MB231; set-up: method as in PMID 26241873; conditions: cited from earlier work
[3] = tested on: MCF07; experiment: CellTiterGlo luminescent cell viability assay, MCF07
Protocol: as §1

[4] = tested on: MDA-MB231; experiment: CellTiterGlo luminescent cell viability assay, MDA-MB231
Protocol: as §1

[5] = tested on: several cell models of breast cancer; set-up: method as in PMID 26241873; conditions: read-out: EC50 antiproliferative activity; cited from earlier work
[6] = tested on: SUM149; experiment: CellTiterGlo luminescent cell viability assay, SUM149
Protocol: as §1

[7] = CellTiterGlo cell viability assay, non-neoplastic cell line BJ; conditions: human, BJ cells (non-neoplastic, non-tumorigenic cell line), Cytotoxicity IC50 BJ, 72 h incubation, CellTiter-Glo, mean ± SD
Protocol: as §1

[8] = in vitro; conditions: human, Cytotoxicity IC50 BJ
Protocol: as §1

[9] = tested on: HBL-100 and T-47D; set-up: method as in PMID 30840453; conditions: two breast cancer cell lines HBL-100 and T-47D, SRB assay; cited from earlier work
[10] = tested on: MCF-7; set-up: method as in PMID 30793595; conditions: read-out: Antiproliferative activity, sulforhodamine B assay, MCF-7; cited from earlier work
[11] = tested on: MDA-MB231; set-up: method as in PMID 30793595; conditions: read-out: Antiproliferative activity, sulforhodamine B assay, MDA-MB231; cited from earlier work
[12] = tested on: non-tumorigenic cell line BJ; experiment: CellTiterGlo cell viability assay, non-neoplastic cell line BJ; conditions: read-out: Cytotoxicity IC50 BJ, 72 h incubation, CellTiter-Glo, mean ± SD
Protocol: as §1

[13] = Ferric Reducing Antioxidant Power (FRAP) assay; conditions: compounds at 100 μM; positive control ascorbic acid 1 mM
Protocol: An antioxidant evaluation of the compounds was performed using the Ferric Reducing Antioxidant Power (FRAP) Assay Colorimetric Kit (ab234626, Abcam, Cambridge, UK) following the manufacturers’ instructions. Briefly, FRAP reagents were mixed with compounds at 100 μM in 96-well plates, and then reacted for 10 min at 37 °C in the dark. Ascorbic acid was provided as the positive control (1mM). After incubation, the absorbance was read using a microplate reader (CLARIOstar Plus, BMG LabTech, Ortenberg, Germany) at 594 nm. FRAP [19] was quantified using a reagent calibration curve (Y = 0.039X + 0.002, R^2 = 0.9978) and calculated as nmol Ferrous equivalents.

[14] = tested on: MDA-MB231; experiment: Propidium iodide (PI) assay with Hoechst counterstain; format: cell-based, human; conditions: MDA-MB231, 48 h, 25 μM
Protocol: Propidium iodide (PI) assay was performed to complement the viability assay. The assay was conducted with MDA-MB231 cancer cell models seeded in 48-well plates (Clear, Corning#3548) and cultured for 12 h, then treated for 48 h. Cells were fixed with cold methanol, and stained (0.4% PI, Sigma-Aldrich, Co., St. Louis, MO, USA). Fluorescence was measured and analyzed using Cytation 1 Image Reader (BioTek, Winooski, VT, USA). Cell viability was calculated/plotted as the percentage of surviving cells after treatment relative to the vehicle. For qualitative analysis and visualization, doubling staining was performed using Hoechst dye to stain nuclei.

[15] = tested on: MCF07
Protocol: as §1

[16] = tested on: non-tumorigenic cell line BJ; conditions: human, 72 h
Protocol: as §1

[17] = tested on: SUM149
Protocol: as §1

[18] = tested on: T47D; conditions: human, 72 h
Protocol: as §1

[19] = read-out: Cytotoxicity IC50 T47D, 72 h incubation, CellTiter-Glo, mean ± SD
[20] = Homo sapiens, 72 h, read-out: Cytotoxicity IC50 MCF07, 72 h incubation, CellTiter-Glo, mean ± SD
[21] = Homo sapiens, MDA-MB-231, 72 h, read-out: Cytotoxicity IC50 MDA-MB231, 72 h incubation, CellTiter-Glo, mean ± SD
[22] = Homo sapiens, SUM149, 72 h, read-out: Cytotoxicity IC50 SUM149
[23] = read-out: Cytotoxicity IC50 MDA-MB231, 72 h incubation, CellTiter-Glo, mean ± SD

SMILES	IC50 [1, 19] [µM]	IC50 [3, 20] [µM]	IC50 [4, 21] [µM]	EC50 [5] [µM]	IC50 [6, 22] [µM]	IC50 at 72 h [7] [µM]	IC50 at 72 h [8] [µM]	IC50 [12] [µM]	further results
CC(C)c1cc2c(cc1O)[C@@]1(C)CCCC(C)(C)[C@@H]1CC2 [Compound 1, ferruginol]	> 100	19 ± 1.5	8.3 ± 1.4	< 50	> 50	> 50	–	–	Inhibition of cell cycle progression at the G2/M phase [2]: 19%; Cell cycle arrest at G0/G1 ([2]; positive control 43%, negative control 48.36%): 50.76%
CC(C)c1cc2c(cc1O)[C@@]1(C)CCC[C@@](C)(CN)[C@@H]1CC2 [Compound 2, 12-hydroxydehydroabietylamine]	> 50	10 ± 1.5	5.1 ± 0.6	–	4.4 ± 0.3	–	75 ± 6.2	–	–
CC(C)c1cc2c(c(O)c1O)[C@@]13CCCC(C)(C)[C@@H]1C[C@@H]2OC3=O [Compound 4, carnosol]	–	–	–	< 50	–	–	–	–	–
COC(=O)[C@]1(C)CCC[C@]2(C)c3cc(O)c(C(C)C)cc3CC[C@@H]12 [Compound 5, Methyl 12-hydroxyabieta-8,11,13-trien-18-oate]	–	–	–	–	–	–	–	–	GI50 [9]: 9.7 to 19 µM; IC50 [10]: 5.9 µM; IC50 [11]: 18.6 µM
CC(C)c1cc2c(cc1O)[C@@]1(C)CCC[C@@](C)(CN3C(=O)c4ccccc4C3=O)[C@@H]1CC2 [Compound 6, 18-(phthalimid-2-yl)ferruginol]	–	–	8.22 ± 0.47	–	–	74.8 ± 5.3	–	74.8 ± 5.3	IC50 ([1]; read-out: Cytotoxicity IC50 T47D): 29.2 ± 1.5 µM; IC50 ([3]; Homo sapiens, 72 h, read-out: Cytotoxicity IC50 MCF07): 13 ± 0.6 µM; IC50 [4, 23]: 8.2 ± 0.5 µM; IC50 ([6]; Homo sapiens, SUM149, 72 h, read-out: Cytotoxicity IC50 SUM149, 72 h incubation, CellTiter-Glo, mean ± SD): 4.45 ± 0.2 µM; IC50 ([6]; read-out: Cytotoxicity IC50 SUM149, 72 h incubation, CellTiter-Glo, mean ± SD): 4.4 ± 0.2 µM
COC(=O)[C@]1(C)CCC[C@]2(C)C3=C(C=C(C(C)C)C(=O)C3=O)CC[C@@H]12 [Compound 7, Methyl 11,12-Dioxo-abieta-8,13-dien-18-oate]	14.1 ± 0.5	8.29 ± 0.93	3.95 ± 0.8	–	1.3 ± 0.6	56.5 ± 6.1	–	56.5 ± 6.1	IC50 ([3]; read-out: Cytotoxicity IC50 MCF07, 72 h incubation, CellTiter-Glo, mean ± SD): 8.3 ± 0.9 µM; IC50 [4, 23]: 3.9 ± 0.8 µM; Antioxidant potential (FRAP) [13]: significant antioxidant potential
CC(C)C1=CC2=C(C(=O)C1=O)[C@@]1(C)CCC[C@@](C)(CN3C(=O)c4ccccc4C3=O)[C@@H]1CC2 [Compound 8, 11,12-Dioxo-N,N-(phthaloyl)dehydroabietylamine]	18.7 ± 0.3	2.3 ± 1.1	2.8 ± 0.4	–	1.5 ± 0.4	35.4 ± 5	–	35.4 ± 5	Dose-dependent cell death (PI staining) [14]: clearly indicates this dependency
COC(=O)[C@]1(C)CCC[C@]2(C)c3c(cc(C(C)C)c(O)c3O)CC[C@@H]12 [Compound 9, Methyl 11,12-Dihydroxy-dehydroabietate]	14.4 ± 0.6	> 50	9.4 ± 0.4	–	> 50	–	57.6 ± 3	–	IC50 [10]: 2.8 µM; IC50 [11]: 2.7 µM; Cytotoxicity IC50 MCF07 [15]: removed the activity; IC50 [16]: 57.6 ± 3 µM; Cytotoxicity IC50 SUM149 [17]: removed the activity; Antioxidant potential (FRAP) [13]: significant antioxidant potential
CC(C)c1cc2c(c(O)c1O)[C@@]1(C)CCC[C@@](C)(CN3C(=O)c4ccccc4C3=O)[C@@H]1CC2 [Compound 10, 11,12-Dihydroxy-N,N-(phthaloyl)dehydroabietylamine]	8.17 ± 0.44	4.6 ± 0.6	2.8 ± 0.2	–	1.8 ± 0.2	–	32.5 ± 5	–	IC50 [18]: 8.2 ± 0.4 µM; IC50 [16]: 32.5 ± 5 µM
CC(C)c1ccc2c(c1)CC[C@H]1[C@](C)(CN)CCC[C@]21C [dehydroabietylamine]	–	–	–	< 50	–	–	–	–	–

Source: paper PMC9953967, “Discovery of Novel Bioactive Tanshinones and Carnosol Analogues against Breast Cancer” (Cancers, 2023)
